Experimental data: patent US10695321B2, “Use of glycopyrrolate for treating tachycardia” (Heptares Therapeutics Limited, priority 2011, dated 2020)

System: subjects with COPD
Experiment: Phase IIa placebo-controlled crossover dose-ranging study, heart rate (vital signs) after single inhaled dose
Format: in vivo, human
Settings: for Adjusted Mean for Average Change in Heart Rate from Test day Baseline: ANCOVA
Description: The study was a Phase IIa, multi-centre, randomised, double-blind, placebo-controlled, crossover, dose-ranging study using four dose levels of glycopyrronium bromide in subjects with COPD. A total of 40 subjects were required to complete the study.
Subjects were randomised to receive a single inhaled dose of 20, 125, 250 and 400 μg of glycopyrronium bromide in ascending order, with a placebo dose randomised into the sequence over 5 study visits. Subjects were randomised to receive treatment on Study Day 1 prior to dosing. All doses, including placebo, were administered using the Miat Monohaler.
The Treatment period then consisted of five study visits (separated by a 5-14-day wash-out period), during which subjects were dosed with a single inhaled dose of glycopyrronium bromide using a Miat Monohaler, in ascending order (20, 125, 250 or 400 μg). A placebo was randomly administered (using a Miat Monohaler) at one of the study visits; subsequent visits continued with the next highest dose of glycopyrronium bromide to that which was administered prior to the placebo.
All subjects were scheduled to be dosed between 08:00 and 10:00 am. For individual subjects, dosing was at the same time of day (±30 minutes). At each dosing visit, subjects received a single dose of glycopyrronium bromide or placebo administered via Miat Monohaler. Each different dose (20, 125, 250 or 400 μg) was contained in one capsule. An appropriate number of Miat Monohalers to conduct the study was also supplied to the site. A new Miat Monohaler was used to administer each dose at each visit.
copyrronium bromide was presented in size 3, white opaque, hard, gelatin capsules packaged in aluminium pouches. The capsules were presented in four dose strengths containing 20, 125, 250, or 400 μg glycopyrronium bromide. In addition to glycopyrronium bromide, excipient present in the capsule formulation consisted of the PowderHale^TM formulation of lactose and magnesium stearate.
All vital signs were measured on each study day, including heart rate (with the subject semi-supine for 5 minutes prior to measurement); blood pressure; respiratory rate and temperature were measured at each visit and before receiving study medication (pre-treatment), if applicable. Blood pressure and heart rate were also measured at 45, 90 minutes and 5, 10, 20 and 30 hours post-treatment on study days.
The statistical analyses were to be reported using summary tables and data listings. Statistical tests for the evaluation were to be performed at the 0.05 significance level using a two-sided test.
All analyses and tabulations were to be performed using SASS Version 6.12 on a PC platform. Continuous variables were to be summarised with sample size (n), mean, standard deviation (SD), minimum, median, and maximum. […] The mean was to have one extra decimal place and the standard deviation was to have two extra decimal places. Categorical variables were to be summarised with number and percentage of subjects.

[1] = 20 μg single inhaled dose, 45 mins post-dose
[2] = 20 μg single inhaled dose, 90 mins post-dose
[3] = 20 μg single inhaled dose, 5 hrs post-dose
[4] = 20 μg single inhaled dose, 10 hrs post-dose
[5] = 20 μg single inhaled dose, 20 hrs post-dose
[6] = 20 μg single inhaled dose, 30 hrs post-dose
[7] = 20 μg single inhaled dose, pre-dose to 45 mins post-dose
[8] = 20 μg single inhaled dose, pre-dose to 90 mins post-dose
[9] = 20 μg single inhaled dose, pre-dose to 5 hours post-dose
[10] = 20 μg single inhaled dose, pre-dose to 10 hours post-dose
[11] = 20 μg single inhaled dose, pre-dose to 20 hours post-dose
[12] = 125 μg single inhaled dose, 45 mins post-dose
[13] = 125 μg single inhaled dose, 90 mins post-dose
[14] = 125 μg single inhaled dose, 5 hrs post-dose
[15] = 125 μg single inhaled dose, 10 hrs post-dose
[16] = 125 μg single inhaled dose, 20 hrs post-dose
[17] = 125 μg single inhaled dose, 30 hrs post-dose
[18] = 125 μg single inhaled dose, pre-dose to 45 mins post-dose
[19] = 125 μg single inhaled dose, pre-dose to 90 mins post-dose
[20] = 125 μg single inhaled dose, pre-dose to 5 hours post-dose
[21] = 125 μg single inhaled dose, pre-dose to 10 hours post-dose
[22] = 125 μg single inhaled dose, pre-dose to 20 hours post-dose
[23] = 125 μg single inhaled dose, pre-dose to 30 hours post-dose

C[N+]1(C)CCC(OC(=O)C(O)(c2ccccc2)C2CCCC2)C1 (stereo not drawn) [glycopyrronium bromide]
Heart Rate Mean [1]: 70.3 bpm
Heart Rate Median [1]: 68.0 bpm
Heart Rate Mean [2]: 72.5 bpm
Heart Rate Median [2]: 71.0 bpm
Heart Rate Mean [3]: 72.8 bpm
Heart Rate Median [3]: 74.0 bpm
Heart Rate Mean [4]: 69.1 bpm
Heart Rate Median [4]: 68.0 bpm
Heart Rate Mean [5]: 68.8 bpm
Heart Rate Median [5]: 69.5 bpm
Heart Rate Mean [6]: 69.8 bpm
Heart Rate Median [6]: 70.0 bpm
Heart Rate Change from Test day Baseline, Mean [7]: −2.5 bpm
Heart Rate Change from Test day Baseline, Median [7]: −2.0 bpm
Heart Rate Change from Test day Baseline, Mean [8]: −0.2 bpm
Heart Rate Change from Test day Baseline, Median [8]: 0.0 bpm
Heart Rate Change from Test day Baseline, Mean [9]: −0.0 bpm
Heart Rate Change from Test day Baseline, Median [9]: 1.0 bpm
Heart Rate Change from Test day Baseline, Mean [10]: −3.4 bpm
Heart Rate Change from Test day Baseline, Median [10]: −1.0 bpm
Heart Rate Change from Test day Baseline, Mean [11]: −3.6 bpm
Heart Rate Change from Test day Baseline, Median [11]: −3.0 bpm
Heart Rate Change from Test day Baseline, Mean (20 μg single inhaled dose, pre-dose to 30 hours post-dose): −2.7 bpm
Adjusted Mean for Average Change in Heart Rate from Test day Baseline (20 μg, to 45 mins post-dose): −2.323 bpm
Dose v Placebo Difference, adjusted mean change in Heart Rate from Test day Baseline (20 μg, to 45 mins post-dose, p-value 0.997): 0.005 bpm
Adjusted Mean for Average Change in Heart Rate from Test day Baseline (20 μg, to 90 mins post-dose): 0.033 bpm
Dose v Placebo Difference, adjusted mean change in Heart Rate from Test day Baseline (20 μg, to 90 mins post-dose, p-value 0.489): −1.239 bpm
Adjusted Mean for Average Change in Heart Rate from Test day Baseline (20 μg, to 5 hours post-dose): 1.933 bpm
Dose v Placebo Difference, adjusted mean change in Heart Rate from Test day Baseline (20 μg, to 5 hours post-dose, p-value 0.945): −0.114 bpm
Adjusted Mean for Average Change in Heart Rate from Test day Baseline (20 μg, to 10 hours post-dose): −0.126 bpm
Dose v Placebo Difference, adjusted mean change in Heart Rate from Test day Baseline (20 μg, to 10 hours post-dose, p-value 0.349): 1.698 bpm
Adjusted Mean for Average Change in Heart Rate from Test day Baseline (20 μg, to 20 hours post-dose): −4.339 bpm
Dose v Placebo Difference, adjusted mean change in Heart Rate from Test day Baseline (20 μg, to 20 hours post-dose, p-value 0.068): −2.872 bpm
Adjusted Mean for Average Change in Heart Rate from Test day Baseline (20 μg, to 30 hours post-dose): −0.880 bpm
Dose v Placebo Difference, adjusted mean change in Heart Rate from Test day Baseline (20 μg, to 30 hours post-dose, p-value 0.379): −1.499 bpm
Heart Rate Mean [12]: 65.5 bpm
Heart Rate Median [12]: 63.5 bpm
Heart Rate Mean [13]: 67.6 bpm
Heart Rate Median [13]: 69.0 bpm
Heart Rate Mean [14]: 70.6 bpm
Heart Rate Median [14]: 73.0 bpm
Heart Rate Mean [15]: 67.0 bpm
Heart Rate Median [15]: 67.0 bpm
Heart Rate Mean [16]: 66.4 bpm
Heart Rate Median [16]: 66.0 bpm
Heart Rate Mean [17]: 72.1 bpm
Heart Rate Median [17]: 72.0 bpm
Heart Rate Change from Test day Baseline, Mean [18]: −3.8 bpm
Heart Rate Change from Test day Baseline, Median [18]: −4.0 bpm
Heart Rate Change from Test day Baseline, Mean [19]: −1.8 bpm
Heart Rate Change from Test day Baseline, Median [19]: −2.0 bpm
Heart Rate Change from Test day Baseline, Mean [20]: 1.2 bpm
Heart Rate Change from Test day Baseline, Median [20]: 0.5 bpm
Heart Rate Change from Test day Baseline, Mean [21]: −2.1 bpm
Heart Rate Change from Test day Baseline, Median [21]: −3.0 bpm
Heart Rate Change from Test day Baseline, Mean [22]: −2.5 bpm
Heart Rate Change from Test day Baseline, Median [22]: −1.5 bpm
Heart Rate Change from Test day Baseline, Mean [23]: 2.8 bpm
Heart Rate Change from Test day Baseline, Median [23]: 1.0 bpm
Adjusted Mean for Average Change in Heart Rate from Test day Baseline (125 μg, to 45 mins post-dose): −2.854 bpm
Dose v Placebo Difference, adjusted mean change in Heart Rate from Test day Baseline (125 μg, to 45 mins post-dose, p-value 0.712): −0.526 bpm
Adjusted Mean for Average Change in Heart Rate from Test day Baseline (125 μg, to 90 mins post-dose): −0.650 bpm
Dose v Placebo Difference, adjusted mean change in Heart Rate from Test day Baseline (125 μg, to 90 mins post-dose, p-value 0.240): −1.921 bpm
Adjusted Mean for Average Change in Heart Rate from Test day Baseline (125 μg, to 5 hours post-dose): 2.382 bpm
Dose v Placebo Difference, adjusted mean change in Heart Rate from Test day Baseline (125 μg, to 5 hours post-dose, p-value 0.826): 0.335 bpm
Adjusted Mean for Average Change in Heart Rate from Test day Baseline (125 μg, to 10 hours post-dose): −0.186 bpm
Dose v Placebo Difference, adjusted mean change in Heart Rate from Test day Baseline (125 μg, to 10 hours post-dose, p-value 0.339): 1.638 bpm
Adjusted Mean for Average Change in Heart Rate from Test day Baseline (125 μg, to 20 hours post-dose): −1.590 bpm
Dose v Placebo Difference, adjusted mean change in Heart Rate from Test day Baseline (125 μg, to 20 hours post-dose, p-value 0.932): −0.123 bpm
Adjusted Mean for Average Change in Heart Rate from Test day Baseline (125 μg, to 30 hours post-dose): 2.796 bpm
Dose v Placebo Difference, adjusted mean change in Heart Rate from Test day Baseline (125 μg, to 30 hours post-dose, p-value 0.168): 2.177 bpm
Heart Rate Mean (250 μg single inhaled dose, 45 mins post-dose): 65.1 bpm
